In patent US20240148038A1, “TASTE-MASKING COMPOUNDS AND COMPOSITIONS AND USES THEREOF” (HEALTHTECH BIO ACTIVES, S.L.U., priority 2021, published 2024):

What was measured:
[1] = Masking bitterness of paracetamol: test panel, equibitter paracetamol solution; type: in vivo
Procedure: The bitter masking effect of hesperidin against paracetamol was assayed. The anti-bittering effect was measured as a dose-response profile vs. a solution of paracetamol.
A calibrated test panel compared each solution with several solutions of paracetamol in water at different concentrations and determined the equibitter paracetamol solution. The equibitter solution was calculated as the average of all the evaluations of the panel.
The masking effect or percentage of bitterness reduction was then calculated from the reference amount of paracetamol contained in each tested solution (5000 ppm) and the amount of paracetamol in the equibitter solution, using the following formula: […]
Thus, for example, a solution containing 5000 ppm of paracetamol and 250 ppm of hesperidin was equibitter to a solution containing 4000 ppm of paracetamol. Therefore, the masking effect was 20%.
The bitter masking effect of a racemic hesperidin (57% hesperidin 2S: 43% hesperidin 2R; purchased by HealthTech Bio Actives, S.L.U. Beniel, Spain) against paracetamol was also assayed. The anti-bittering effect was measured as a dose-response profile vs. a solution of paracetamol as described above.
Further, the bitter masking effect of a different flavonoid compound, neodiosmin (purchased by HealthTech Bio Actives, S.L.U. Beniel, Spain), was also tested. The anti-bittering effect was measured as a dose-response profile vs. a solution of paracetamol as explained before.

[2] = Panel evaluation in tonic water; type: in vivo; conditions: quinine salt 78 ppm
Procedure: NaOH:H2O solutions containing different concentrations (100 ppm and 200 ppm) of Hesperidin 2S were prepared as explained above (Table 1) and added to a tonic water samples prepared as indicated in Table 10 below:
A panel of experts was used to determine the reduction in unpleasant taste impression of the different samples.

[3] = Panel evaluation in greening affected orange juices; type: in vivo; conditions: greening affected orange juice
Procedure: Orange Juice samples obtained from oranges from trees afflicted with greening disease were provided by F&M Solutions (Brasil). The juice samples were prepared by squeezing oranges collected from afflicted tree branches from local Brazilian farmers. The squeezed orange juice was bottled and pasteurized by standard methods well known in the art.
Different concentrations of Hesperidin 2S (100 ppm and 200 ppm) were evaluated in the orange juices from greening afflicted oranges.
A panel of experts was used to determine the reduction in unpleasant taste impressions of the different samples.

[4] = Panel evaluation in fresh squeezed orange juices; type: in vivo; conditions: 100 ppm or 200 ppm H2S; fresh squeezed orange juice
Procedure: NaOH:H2O solutions containing different concentrations (100 ppm and 200 ppm) of Hesperidin 2S were prepared as explained above (Table 1) and added to fresh squeezed orange juices.
A panel of experts was used to determine the reduction in unpleasant tastes of the fresh squeezed orange juices after addition of different concentrations of H2S.

[5] = Panel evaluation in dark chocolate 95%; type: in vivo
Procedure: Reduction of unpleasant taste impressions in dark chocolate (95%) preparations was evaluated using different concentrations of H2S (100 ppm and 200 ppm).
Hesperidin 2S (dry powder) was incorporated into a sample of melted dark chocolate (95%). The liquid mass was cooled and mold, obtaining a solid chocolate.
A panel of experts was used to determine the reduction in unpleasant taste impressions of the dark chocolate (95%) preparations.

[6] = Panel evaluation in limonin solution (greening disease model); type: in vivo; conditions: 200 ppm H2S in limonin 50 ppm solution
Procedure: In order to determine the reduction in unpleasant taste impressions (bitterness) by hesperidin in a greening disease model, a limonin solution was prepared as indicated in Table 6. This solution was used for testing. Limonin (99.66%) was purchased from TargetMol.
The effect of H2S (200 ppm) in a limonin solution (50 ppm) was evaluated. A panel of experts was used to determine the reduction in unpleasant taste impressions of the limonin-containing preparation.

Solubility in water = type: physicochemical
Procedure: Hesperidin 2S has a very low solubility in water (less than 10 ppm). However, in presence of NaOH, its solubility increases. In order to study the component in liquid matrixes, a non-heated H2O—NaOH solution was prepared (Table 1).

[7] = Panel evaluation in orange juices containing oleuropeins; type: in vivo; conditions: orange juice with 500 ppm Olews 40%
Procedure: NaOH:H2O solutions containing different concentrations (100 ppm and 200 ppm) of Hesperidin 2S were prepared as explained above (Table 1) and added to orange juices containing 500 ppm Olews 40% (500 ppm Olews 40%=160 ppm oleuropein). Olews 40% provided by HealthTech Bio Actives S.L.U. (Beniel, Spain).
The taste masking effect against oleuropeins was assayed following an analogous procedure to the one used in Example 1 for paracetamol.
For each tested solution, a test panel determined the equibitter oleuropein solution, and the masking effect was calculated as explained in Example 1. A panel of experts was used to determine the reduction in unpleasant taste impressions of the orange juice preparations containing oleuropeins after addition of H2S.

[8] = Panel evaluation in crackers with reduced NaCl containing KCl; type: in vivo; conditions: 200 ppm H2S
Procedure: A dosage of 200 ppm of H2S was added to crackers with reduced content of sodium chloride (NaCl) and containing potassium chloride (KCl; Panreac). The composition of the crackers is disclosed in Table 4 below:
The taste masking effect was assayed, following an analogous procedure to the one disclosed in Example 1. A panel of experts was used to determine the reduction in unpleasant taste impressions of the potassium chloride-containing preparations after addition of H2S.

[9] = Panel evaluation in protein milkshake; type: in vivo; conditions: 100 ppm or 200 ppm H2S
Procedure: NaOH:H2O solutions containing different concentrations (100 ppm and 200 ppm) of Hesperidin 2S were prepared as explained above (Table 1) and added to a protein milkshake prepared as indicated in Table 12 below.
The taste masking effect was assayed, following an analogous procedure to the one used in Example 1. A panel of experts was used to determine the reduction in unpleasant taste impressions of the protein milkshake preparations after addition of H2S.

[10] = Panel evaluation in plant-based burger containing oleuropeins; type: in vivo; conditions: plant-based burger with 2000 ppm Olews 40%
Procedure: Reduction of unpleasant taste impression in a plant-based burger was evaluated using different concentrations of H2S (100 ppm and 200 ppm). Hesperidin 2S (dry powder) was incorporated into the preparations containing 2000 ppm Olews 40% provided by HealthTech Bio Actives, S.L.U. (Beniel, Spain) (2000 ppm Olews 40%=[…]) as indicated in Table 11 below:
A panel of experts was used to determine the reduction in unpleasant taste impressions of the plant-based burger preparations.

[11] = 10 ppm test substance in 5000 ppm paracetamol aqueous solution
[12] = 50 ppm test substance in 5000 ppm paracetamol aqueous solution
[13] = 100 ppm test substance in 5000 ppm paracetamol aqueous solution
[14] = 250 ppm test substance in 5000 ppm paracetamol aqueous solution
[15] = 250 ppm test substance in 5000 ppm paracetamol aqueous solution, listed as hesperidin
[16] = 500 ppm test substance in 5000 ppm paracetamol aqueous solution

SMILES: COc1ccc([C@@H]2CC(=O)c3c(O)cc(O[C@@H]4O[C@H](CO[C@@H]5O[C@@H](C)[C@H](O)[C@@H](O)[C@H]5O)[C@@H](O)[C@H](O)[C@H]4O)cc3O2)cc1O (racemic) [Racemic Hesperidin, hesperidin]
- % of bitterness reduction [1, 11]: 4%
- Equibitter paracetamol concentration [1, 11]: 4800 ppm
- % of bitterness reduction [1, 12]: 6%
- Equibitter paracetamol concentration [1, 12]: 4700 ppm
- % of bitterness reduction [1, 13]: 13%
- Equibitter paracetamol concentration [1, 13]: 4350 ppm
- % of bitterness reduction [1, 14]: 18%
- Equibitter paracetamol concentration [1, 14]: 4100 ppm

SMILES: COc1ccc([C@@H]2CC(=O)c3c(O)cc(O[C@@H]4O[C@H](CO[C@@H]5O[C@@H](C)[C@H](O)[C@@H](O)[C@H]5O)[C@@H](O)[C@H](O)[C@H]4O)cc3O2)cc1O (racemic) [Hesperidin 2S, (2S)-5-hydroxy-2-(3-hydroxy-4-methoxyphenyl)-7-[(2S,3R,4S,5S,6R)-3,4,5-trihydroxy-6-{[(2R,3R,4R,5R,6S)-3,4,5-trihydroxy-6-methyloxan-2-yl]oxymethyl}oxan-2-yl]oxy-2,3-dihydrochromen-4-one]
- bitterness ([2]; 100 ppm H2S): significant reduction
- bitterness ([2]; 200 ppm H2S): reduction
- bitterness, acidity and astringency ([3]; 100 ppm H2S): significant reduction
- flavonoid note ([3]; 100 ppm H2S): noticeable
- green orange notes and bitter aftertaste ([3]; 100 ppm H2S): Reduction
- overall orange notes ([3]; 100 ppm H2S): slight reduction
- flavonoid note ([3]; 200 ppm H2S): increased
- green orange notes and bitter aftertaste ([3]; 200 ppm H2S): reduction
- overall orange notes ([3]; 200 ppm H2S): reduction
- bitterness, acidity and astringency ([3]; 200 ppm H2S, to a lesser extent than 100 ppm): reduction
- astringent and bitter taste [4]: clearly reduced
- bitterness and astringency ([5]; 200 ppm H2S): decreased
- flavonoid notes ([5]; 200 ppm H2S): not present
- bitterness ([5]; 200 ppm H2S as printed): decrease
- cocoa notes ([5]; 200 ppm H2S as printed): slightly enhanced
- % of bitterness reduction [6]: 30%
- Equibitter [6]: 35 ppm
- % of bitterness reduction [1, 11]: 5%
- Equibitter paracetamol concentration [1, 11]: 4750 ppm
- % of bitterness reduction [1, 12]: 11%
- Equibitter paracetamol concentration [1, 12]: 4450 ppm
- % of bitterness reduction [1, 13]: 20%
- Equibitter paracetamol concentration [1, 13]: 4000 ppm
- % of bitterness reduction [1, 14]: 37%
- Equibitter paracetamol concentration [1, 14]: 3150 ppm
- % of bitterness reduction ([1]; 250 ppm test substance in 5000 ppm paracetamol aqueous solution, listed as H2S): 37%
- % of bitterness reduction [1, 15]: 20%
- Equibitter paracetamol concentration [1, 15]: 4000 ppm
- % of bitterness reduction ([1]; 250 ppm test substance in 5000 ppm paracetamol aqueous solution, listed as non-racemic hesperidin 2S): 37%
- solubility in presence of NaOH (Solubility in water; in presence of NaOH): increases
- solubility in water (Solubility in water; water): less than 10 ppm
- orange notes ([7]; 200 ppm H2S (FIG. 1B)): enhanced
- woody and bitter taste coming from the oleuropein masked ([7]; 200 ppm H2S (FIG. 1B)): 40%
- woody and bitter taste ([7]; 200 ppm H2S as printed (FIG. 1A)): masked
- pungent and metallic notes ([8]; KCl-containing crackers): suppressed
- saltiness ([8]; crackers with reduced sodium chloride): increase
- bitter taste [9]: reduced
- dry fava notes [9]: reduced
- bitterness ([10]; 100 ppm H2S): decrease
- flavonoid notes ([10]; 100 ppm H2S): not present
- woody off-flavor notes ([10]; 100 ppm H2S): reduced
- bitterness and bean notes ([10]; 200 ppm H2S): decreased
- flavonoid notes ([10]; 200 ppm H2S): not present
- woody off-flavor notes ([10]; 200 ppm H2S): reduced

SMILES: COc1ccc(-c2cc(=O)c3c(O)cc(O[C@@H]4O[C@H](CO)[C@@H](O)[C@H](O)[C@H]4O[C@@H]4O[C@@H](C)[C@H](O)[C@@H](O)[C@H]4O)cc3o2)cc1O [Neodiosmin, neodiosmin, reference compound]
- % of bitterness reduction [1, 12]: 12%
- Equibitter paracetamol concentration [1, 12]: 4400 ppm
- % of bitterness reduction [1, 13]: 12%
- Equibitter paracetamol concentration [1, 13]: 4400 ppm
- % of bitterness reduction [1, 14]: 16%
- Equibitter paracetamol concentration [1, 14]: 4200 ppm
- % of bitterness reduction [1, 16]: 24%
- Equibitter paracetamol concentration [1, 16]: 3800 ppm
